Assay results taken from article PMC11956017, “Design of Benzyl-triazolopyrimidine-Based NADPH Oxidase Inhibitors Leads to the Discovery of a Potent Dual Covalent NOX2/MAOB Inhibitor” (Journal of Medicinal Chemistry, 2025).
Several values for one entry are separate records, joined by “and”; a condition that tells them apart may be missing. Equal values may be shown once. Entries after “also recorded” stand apart in the source; their conditions may differ.

Experiments:
csNOX5 dehydrogenase = experiment: Intact protein mass spectrometry of csNOX5 dehydrogenase; assay type: binding, Cylindrospermum stagnale
Procedure: Approximately 1 mg mL^-1 protein was incubated with 300 μM FAD and 1 mM 9a at 4 °C for 1 h. A negative control reaction was performed by adding an equal volume of DMSO. Protein was denatured by adding 1% (v/v) formic acid. Chromatographic separation and mass spectrometry analysis were carried out as previously reported.[10] Analyses were carried out by ESI-qTOF-HRMS on an […] qTOF system (Sciex) embedding a Twin Sprayer ESI probe and coupled with an ExcionLC system (Sciex) controlled by SciexOS software v. 3.0.0. The injection volume was 10 μL (10 μg), and chromatographic separation was carried out with a bioZen WidePore C4 column (a 100 mm length, a 2.1 mm diameter, and a 2.6 μm particle size; Phenomenex).

[1] = Mass spectrometric analysis of GSH reactivity; settings: GSH 10 µM and compound 10 µM (1:1), ammonium acetate 200 mM, pH 7.4
Procedure: Reactivity between 9a and GSH was measured via mass spectrometry on a Q Exactive UHMR hybrid quadrupole-Orbitrap mass spectrometer (Thermo Fisher) with positive polarity. The instrument parameters used for MS spectra collection were the following: capillary voltage, 1.2 kV; scan range from 350 to 2000 m/z; HCD collision voltage, 0 V; source fragmentation, 0 V; in-source trapping, 0 V. The ion transfer optics was set as follows: injection flatapole, 5 V; inner-flatapole lens, 4 V; bent flatapole, 2 V; transfer multipole, 0 V. The resolution of the instrument was 200,000 at m/z = 400, the nitrogen pressure in the HCD cell was maintained at approximately 9.8 × 10^–11 mbar, and the source temperature was kept at 100 °C. Solutions for flow injection analysis were constituted by dissolving each compound in LC-MS-grade MeOH.

BV2 cells [2] = experiment: MTT viability assay in BV2 cells; assay type: cell-based, murine; settings: 10 μM, LPS/IFN-γ stimulation, 48 h
BV2 cells [3] = experiment: qRT-PCR of iNOS, IL-1β and IL-6 transcripts in BV2 cells; assay type: cell-based, murine
Procedure: BV2 murine microglial cells were cultured in DMEM supplemented with 10% heat-inactivated FBS, 100 IU/mL penicillin G, […] streptomycin, and […] amphotericin B and grown at 37 °C in 5% CO2 and a humidified atmosphere. […]
BV2 cells were lysed in a Trizol reagent for isolation of RNA. A reverse transcription reaction was performed in a thermocycler (MJMini personal thermal cycler; Biorad) using an IScript Reverse Transcription Supermix (Biorad) according to the manufacturer’s protocol, under the following conditions: incubation at 25 ° C for 5 min, reverse transcription at 42 ° C for 30 min, and inactivation at 85 ° C for 5 min. Real-time PCR (rtPCR) was carried out in an I-Cycler IQ Multicolor rtPCR detection system (Biorad) using a SsoFast EvaGreen Supermix (Biorad) according to the manufacturer’s instructions. The PCR protocol consisted of 40 cycles of denaturation at 95 ° C for 30 s and annealing/extension at 60 ° C for 30 s. For quantification analysis, the comparative threshold cycle (Ct) method was used. The Ct values from each gene were normalized to the Ct value of GAPDH in the same RNA samples. Relative quantification was performed using the 2^–ΔΔCt method (Schmittgen and Livak, 2008) and expressed as a fold change in arbitrary values. Primers used are as follows: • iNOS fw: […]; rev: […]. • IL-1β fw: […]; rev: […]. • IL-6 fw: […]; rev: […].

[4] = 10 μM, LPS/IFN-γ, 48 h compound treatment

increase in molecular weight of csNOX5 dehydrogenase after reaction (csNOX5 dehydrogenase; 1 mM inhibitor, 4 °C, 1 h, vs DMSO-treated protein): 290 Da and 290.3 Da
Compound: C#CCN(C)Cc1ccc(Cn2nnc3c(Sc4nc5ccccc5o4)ncnc32)cc1 [Compound 9a, N-(4-((7-(Benzo[d]oxazol-2-ylthio)-3H-[1,2,3]triazolo[4,5-d]pyrimidin-3-yl)methyl)benzyl)-N-methylprop-2-yn-1-amine]
covalent binding to csNOX5 dehydrogenase active-site cysteine (csNOX5 dehydrogenase; intact protein ESI-qTOF-HRMS): covalent binding
adduct formation with glutathione [1]: readily reacted with GSH; also recorded: able to form an adduct with glutathione
BV2 cell viability (BV2 cells [2]): negligible effects on cells viability
decrease in IL-1β mRNA level (BV2 cells [3]; [4]): 4 fold
decrease in IL-6 mRNA level (BV2 cells [3]; [4]): 4 fold
decrease in iNOS mRNA level (BV2 cells [3]; [4]): over 10 fold
effects on iNOS, IL-1β and IL-6 mRNA without inhibitor pretreatment (BV2 cells [3]; cells pre-stimulated with LPS/IFN-γ for 24h, then 10 µM compound for 24 h): negligible
